Measurements reported in ChEMBL document CHEMBL1201862, “PubChem BioAssay data set” (2004).
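Grown in 96-well plates, cells were treated for 48 hours with each compound at five concentrations. Insufficient inhibition: endpoint recorded as highest concentration tested. The concentration for 50% growth inhibition is given as GI50.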 Calls of active or inactive are those of the source. Cut-off read from the data, not from the text of the source: active = GI50 up to about 1.1 µM and inactive = higher.

What was measured:
Experiment in all cases: inhibition of tumour cell growth, NCI panel, 48 h
SW-620 = system: SW-620
DU-145 = system: DU-145
HCT-116 = system: HCT-116
K562 = system: K562
HT-29 = system: HT-29
COLO 205 = system: COLO 205
LOX IMVI = system: LOX IMVI
MOLT-4 = system: MOLT-4
CAKI-1 = system: CAKI-1
A549 = system: A549
MDA-MB-435 = system: MDA-MB-435
SF-295 = system: SF-295
SF-539 = system: SF-539
SNB-75 = system: SNB-75
NCI-H460 = system: NCI-H460
MDA-N = system: MDA-N
OVCAR-8 = system: OVCAR-8
SF-268 = system: SF-268
ACHN = system: ACHN
NCI-H23 = system: NCI-H23
MDA-MB-231 = system: MDA-MB-231
NCI/ADR-RES = system: NCI/ADR-RES
OVCAR-3 = system: OVCAR-3
T47D = system: T47D
HOP-92 = system: HOP-92
NCI-H226 = system: NCI-H226
BT-549 = system: BT-549
A498 = system: A498
MCF7 = system: MCF7
HL-60 = system: HL-60
OVCAR-4 = system: OVCAR-4
HCT-15 = system: HCT-15
SK-MEL-2 = system: SK-MEL-2
UACC-62 = system: UACC-62
M14 = system: M14
CCRF-CEM = system: CCRF-CEM
UACC-257 = system: UACC-257
U-251 = system: U-251
RPMI-8226 = system: RPMI-8226
HCC 2998 = system: HCC 2998
EKVX = system: EKVX
OVCAR-5 = system: OVCAR-5
SN12C = system: SN12C
IGROV-1 = system: IGROV-1
SR = system: SR
UO-31 = system: UO-31
RXF 393 = system: RXF 393
NCI-H522 = system: NCI-H522
Hs-578T = system: Hs-578T
KM12 = system: KM12
PC-3 = system: PC-3
HOP-62 = system: HOP-62
SNB-19 = system: SNB-19
TK-10 = system: TK-10
SK-MEL-5 = system: SK-MEL-5
786-0 = system: 786-0
SK-OV-3 = system: SK-OV-3
SK-MEL-28 = system: SK-MEL-28
Malme-3M = system: Malme-3M

## Cc1cc(C)c(P2C(=C(O[Si](C(C)C)(C(C)C)C(C)C)C(C)(C)C)C2(c2ccccc2)c2ccccc2)c(C)c1 (stereo not drawn)
SW-620
  GI50: > 100 µM (inactive)
DU-145
  GI50: > 100 µM (inactive)
HCT-116
  GI50: 52.8 µM (inactive)
K562
  GI50: 67 µM (inactive)
HT-29
  GI50: > 100 µM (inactive)
COLO 205
  GI50: > 100 µM (inactive)
LOX IMVI
  GI50: > 100 µM (inactive)
MOLT-4
  GI50: > 100 µM (inactive)
CAKI-1
  GI50: > 100 µM (inactive)
A549
  GI50: 61.8 µM (inactive)
MDA-MB-435
  GI50: > 100 µM (inactive)
SF-295
  GI50: > 100 µM (inactive)
SF-539
  GI50: > 100 µM (inactive)
SNB-75
  GI50: 88.1 µM (inactive)
NCI-H460
  GI50: > 100 µM (inactive)
MDA-N
  GI50: > 100 µM (inactive)
OVCAR-8
  GI50: > 100 µM (inactive)
SF-268
  GI50: > 100 µM (inactive)
ACHN
  GI50: > 100 µM (inactive)
NCI-H23
  GI50: > 100 µM (inactive)
MDA-MB-231
  GI50: > 100 µM (inactive)
NCI/ADR-RES
  GI50: > 100 µM (inactive)
OVCAR-3
  GI50: > 100 µM (inactive)
T47D
  GI50: > 100 µM (inactive)
HOP-92
  GI50: > 100 µM (inactive)
NCI-H226
  GI50: > 100 µM (inactive)
BT-549
  GI50: > 100 µM (inactive)
A498
  GI50: > 100 µM (inactive)
MCF7
  GI50: > 100 µM (inactive)
HL-60
  GI50: > 100 µM (inactive)
OVCAR-4
  GI50: > 100 µM (inactive)
HCT-15
  GI50: > 100 µM
SK-MEL-2
  GI50: > 100 µM (inactive)
UACC-62
  GI50: > 100 µM (inactive)
M14
  GI50: > 100 µM (inactive)
CCRF-CEM
  GI50: > 100 µM (inactive)
UACC-257
  GI50: > 100 µM (inactive)
U-251
  GI50: > 100 µM (inactive)
RPMI-8226
  GI50: 62.8 µM (inactive)
HCC 2998
  GI50: > 100 µM (inactive)
EKVX
  GI50: > 100 µM (inactive)
OVCAR-5
  GI50: > 100 µM (inactive)
SN12C
  GI50: > 100 µM (inactive)
IGROV-1
  GI50: > 100 µM (inactive)
SR
  GI50: 86.3 µM (inactive)
UO-31
  GI50: 76.9 µM (inactive)
RXF 393
  GI50: > 100 µM (inactive)
NCI-H522
  GI50: 62.1 µM (inactive)
Hs-578T
  GI50: > 100 µM (inactive)
KM12
  GI50: 94 µM (inactive)
PC-3
  GI50: 57.9 µM (inactive)
HOP-62
  GI50: > 100 µM (inactive)
SNB-19
  GI50: > 100 µM (inactive)
TK-10
  GI50: > 100 µM (inactive)
SK-MEL-5
  GI50: > 100 µM (inactive)
786-0
  GI50: > 100 µM (inactive)
SK-OV-3
  GI50: > 100 µM (inactive)
SK-MEL-28
  GI50: > 100 µM (inactive)

## COc1ccc2nc(-c3ccccc3)c(=O)[nH]c2c1
SW-620
  GI50: > 100 µM (inactive)
DU-145
  GI50: > 100 µM (inactive)
HCT-116
  GI50: > 100 µM (inactive)
K562
  GI50: > 100 µM (inactive)
HT-29
  GI50: > 100 µM (inactive)
COLO 205
  GI50: > 100 µM (inactive)
LOX IMVI
  GI50: > 100 µM (inactive)
MOLT-4
  GI50: > 100 µM (inactive)
CAKI-1
  GI50: > 100 µM (inactive)
A549
  GI50: > 100 µM (inactive)
MDA-MB-435
  GI50: > 100 µM (inactive)
SF-295
  GI50: > 100 µM (inactive)
SF-539
  GI50: > 100 µM (inactive)
SNB-75
  GI50: > 100 µM (inactive)
NCI-H460
  GI50: > 100 µM (inactive)
MDA-N
  GI50: > 100 µM (inactive)
OVCAR-8
  GI50: > 100 µM (inactive)
SF-268
  GI50: > 100 µM (inactive)
ACHN
  GI50: > 100 µM (inactive)
NCI-H23
  GI50: > 100 µM (inactive)
MDA-MB-231
  GI50: > 100 µM (inactive)
NCI/ADR-RES
  GI50: > 100 µM (inactive)
OVCAR-3
  GI50: > 100 µM (inactive)
T47D
  GI50: > 100 µM (inactive)
HOP-92
  GI50: > 100 µM (inactive)
NCI-H226
  GI50: > 100 µM (inactive)
BT-549
  GI50: > 100 µM (inactive)
A498
  GI50: > 100 µM (inactive)
MCF7
  GI50: > 100 µM (inactive)
HL-60
  GI50: > 100 µM (inactive)
HCT-15
  GI50: > 100 µM
UACC-62
  GI50: > 100 µM (inactive)
M14
  GI50: > 100 µM (inactive)
CCRF-CEM
  GI50: > 100 µM (inactive)
UACC-257
  GI50: > 100 µM (inactive)
RPMI-8226
  GI50: > 100 µM (inactive)
HCC 2998
  GI50: > 100 µM (inactive)
EKVX
  GI50: > 100 µM (inactive)
OVCAR-5
  GI50: > 100 µM (inactive)
SN12C
  GI50: > 100 µM (inactive)
IGROV-1
  GI50: > 100 µM (inactive)
SR
  GI50: > 100 µM (inactive)
RXF 393
  GI50: > 100 µM (inactive)
NCI-H522
  GI50: > 100 µM (inactive)
Hs-578T
  GI50: > 100 µM (inactive)
PC-3
  GI50: > 100 µM (inactive)
HOP-62
  GI50: > 100 µM (inactive)
SNB-19
  GI50: > 100 µM (inactive)
TK-10
  GI50: > 100 µM (inactive)
SK-MEL-5
  GI50: > 100 µM (inactive)
786-0
  GI50: > 100 µM (inactive)
SK-MEL-28
  GI50: > 100 µM (inactive)
Malme-3M
  GI50: > 100 µM (inactive)

## CSC1=C(SC)C(=O)c2cn(C)c(=O)cc2C1=O
SW-620
  GI50: 1.74 µM (inactive)
DU-145
  GI50: 8.47 µM (inactive)
HCT-116
  GI50: 1.81 µM (inactive)
K562
  GI50: 0.399 µM (active)
HT-29
  GI50: 6.14 µM (inactive)
COLO 205
  GI50: 1.49 µM (inactive)
LOX IMVI
  GI50: 1.78 µM (inactive)
MOLT-4
  GI50: 1.08 µM (active)
A549
  GI50: 16.1 µM (inactive)
MDA-MB-435
  GI50: 1.79 µM (inactive)
SF-295
  GI50: 13 µM (inactive)
SF-539
  GI50: 9.82 µM (inactive)
SNB-75
  GI50: 8.67 µM (inactive)
NCI-H460
  GI50: 9.38 µM (inactive)
MDA-N
  GI50: 1.64 µM (inactive)
OVCAR-8
  GI50: > 44.1 µM (inactive)
SF-268
  GI50: 11.8 µM (inactive)
ACHN
  GI50: 1.81 µM (inactive)
NCI-H23
  GI50: 4.57 µM (inactive)
MDA-MB-231
  GI50: 1.87 µM (inactive)
NCI/ADR-RES
  GI50: > 19.7 µM (inactive)
OVCAR-3
  GI50: 1.91 µM (inactive)
T47D
  GI50: 2.05 µM (inactive)
HOP-92
  GI50: 0.904 µM (active)
NCI-H226
  GI50: 19.9 µM (inactive)
BT-549
  GI50: 2.14 µM (inactive)
A498
  GI50: 15.1 µM (inactive)
MCF7
  GI50: 2.05 µM (inactive)
HL-60
  GI50: 0.0731 µM (active)
OVCAR-4
  GI50: 1.97 µM (inactive)
HCT-15
  GI50: 2.14 µM
SK-MEL-2
  GI50: 5.06 µM (inactive)
UACC-62
  GI50: 2.7 µM (inactive)
M14
  GI50: 1.73 µM (inactive)
CCRF-CEM
  GI50: 0.245 µM (active)
UACC-257
  GI50: 2.34 µM (inactive)
U-251
  GI50: 10.2 µM (inactive)
RPMI-8226
  GI50: 2.4 µM (inactive)
HCC 2998
  GI50: 17.1 µM (inactive)
EKVX
  GI50: 18.3 µM (inactive)
OVCAR-5
  GI50: 20.2 µM (inactive)
SN12C
  GI50: 3.27 µM (inactive)
IGROV-1
  GI50: 11.1 µM (inactive)
SR
  GI50: < 0.0332 µM (active)
UO-31
  GI50: 1.75 µM (inactive)
RXF 393
  GI50: 1.89 µM (inactive)
NCI-H522
  GI50: 0.853 µM (active)
Hs-578T
  GI50: 7.67 µM (inactive)
KM12
  GI50: 21.6 µM (inactive)
PC-3
  GI50: 9.55 µM (inactive)
HOP-62
  GI50: 9.38 µM (inactive)
SNB-19
  GI50: 17.1 µM (inactive)
TK-10
  GI50: 2.33 µM (inactive)
SK-MEL-5
  GI50: 1.75 µM (inactive)
SK-OV-3
  GI50: 17.5 µM (inactive)
SK-MEL-28
  GI50: 2.82 µM (inactive)
Malme-3M
  GI50: 2.24 µM (inactive)
